This note sets out measurements from patent publication US10426775B2, “Methods for treating Friedreich's ataxia with etravirine” (Fratagene Therapeutics srl, priority 2017, dated 2019).

In assay [1] the test system is newly synthesized frataxin mRNA. Briefly: Nascent frataxin transcripts (EU metabolic labeling, Click-iT capture, real-time PCR) in HEK293-fxn. It is filed as cell-based, human. To be noted: 10 μM, 4 or 8 hours. The text has this:
We then investigated whether the observed increase in frataxin protein levels is due to an upregulation of the frataxin mRNA, either promoted by an increase in the […] rate of frataxin mRNA or by its stabilization. To understand whether etravirine promotes de novo synthesis of frataxin mRNA, we metabolically labeled nascent transcripts through the incorporation of 5-ethynyl uridine (EU). Through a click chemistry-based reaction, biotin was then conjugated to EU-labelled transcripts, thus allowing selective isolation and analysis of newly synthesized mRNA. We therefore quantitatively analyzed the relative amount of newly synthesized frataxin mRNA in etravirine-treated HEK293-fxn cells, compared to untreated control cells. […] We then analyzed the effect of etravirine on the decay of frataxin transcript observed upon treatment with actinomycin. HEK293-fxn cells were treated with actinomycin for 4, 8 or 12 hours in the presence or absence of etravirine and frataxin mRNA was quantitated by RT-PCR.
HEK 293-fxn stably expressing frataxin (A), HEK 293 (B), or FRDA lymphoblast cell line GM16203 (C) were treated with 10 μM etravirine for the indicated time points. Protein extracts were resolved on SDS-PAGE and analyzed by western blot with anti-frataxin antibody and anti-tubulin as a loading control. Etr: etravirine; tub: tubulin; fxn pre: frataxin precursor. […]

Another assay concerns frataxin-ProLabel fusion. Put plainly: frataxin-ProLabel cell-based reporter assay (β-galactosidase enzyme fragment complementation), library screening. More on the design: species or system human. To be noted: frataxin-ProLabel transfected cells treated with MG132. Here is the method:
The FDA-approved drug library (SELLECKCHEM SCREENING LIBRARIES®) that was used in the screening was composed of 853 drugs. The library was provided in a total of ten 96-well plate, with the drugs at a stock concentration of 10 mM in dimethyl sulfoxide (DMSO). To evaluate the effect of drugs on frataxin abundance, we generated a fusion construct between frataxin and ProLabel that was used as a reporter in a cell-based assay. The system is based on […] enzyme fragment complementation (Eglen, 2002). […] Indeed, treatment of frataxin-ProLabel transfected cells with MG132 promotes frataxin accumulation, which results in a 5-fold increase in the intensity of the luminescence signal. […]
For the screening, HEK-293 cells were transiently transfected with pCMV-fxn-ProLabel. […] After 24 hours, the complementary β-galactosidase subunit and the substrate were added and chemiluminescence emission was measured by luminometer reading. […] The chemiluminescent signal was monitored over a period of 210 minutes. […]
To analyse the FDA-approved drug screening results, an arbitrary threshold was established for each plate as the average of the luminescence measured in all the wells of the plate plus 2 standard deviations. Luminescence signal from each well was then normalized on threshold value. […]
For orientation: A reporter such as luciferase makes a cellular process visible.

Residues, ends and D or L forms follow the SMILES beside them. *: point of attachment. Cbz = O=C(OCc1ccccc1)*

Turning to `O=C(CCCCCCC(=O)Nc1ccccc1)NO` [Vorinostat], the “relative amount of newly synthesized frataxin mRNA vs untreated control cells” value in assay [1] was “significantly upregulates”.

On to `CC(C)C[C@@H](C=O)NC(=O)[C@H](CC(C)C)NC(=O)[C@H](CC(C)C)NC(=O)OCc1ccccc1` [MG132] (Cbz-Leu-Leu-Leu-aldehyde), for which the “increase in the intensity of the luminescence signal” value in the assay with frataxin-ProLabel fusion was determined as 5 fold.
